In US20260258172A1, “CATIONIC POLYMERS WITH SELECTIVE ANTIFUNGAL PROPERTIES” (Uniwersytet Jagiellonski, priority 2022, published 2026):

Assays:
Type in all cases: cell-based
Fusarium oxysporum 109 = assay: Antifungal microdilution MIC test; settings: comparative test
Description: (§1) In vitro tests of the antifungal activity of the polymers were performed with respect to selected fungal species obtained from international culture collections and the microorganism collection in the Department of Infection Control and Mycology, Chair of Microbiology, Jagiellonian University Medical College. The test was performed using the microdilution method in a liquid medium on flat-bottomed, 96-well polypropylene titration plates. The applied methodology was based on antifungal susceptibility testing procedures developed by the European Committee on Antimicrobial Susceptibility Testing (EUCAST) and on the Hancock Lab procedure for antimicrobial cationic peptides.
(§2) The test compounds were dissolved in sterile distilled water and starting concentrations of 5 g/L were prepared, from which a series of two-fold dilutions in water were obtained. Respective polymer dilutions were transferred in a volume of 20 μL on titration plates (wells 1-10). 20 μL of sterile distilled water was transferred to each of wells 11 and 12. Wells 1-11 were inoculated with fungi in a volume of 180 μL of fungal cell suspensions in a liquid medium, and 180 μL of the sterile medium was transferred to well 12. Fungal suspensions were prepared from fresh cultures on agar media by collecting spores using a sterile swab into sterile distilled water or sterile distilled water with Tween-20 added. Suspensions of certain strains were filtered to remove any hyphal elements (filters with a pore diameter of 20 μm and 10 μm were used). The suspensions were brought to a density of 0.5 on the McFarland scale, and subsequently diluted to 1:20 in a liquid RPMI-1640 medium with L-glutamine and without sodium bicarbonate, supplemented with glucose (2%) and buffered morpholinopropanesulfonic acid (MOPS) (0.165 mol/L).
(§3) Final polymer concentrations on plates after adding fungal suspensions in the liquid medium were 0.49-250 mg/L or 0.98-500 mg/L.
(§4) Incubation was performed at room temperature, 27° C., 37° C., depending on the fungal species, until fungal growth was obtained in growth control (well 11). After the incubation period, fungal growth was evaluated visually and the lowest polymer concentrations that caused complete fungal growth inhibition (MIC (minimal inhibitory concentration) values) were determined. […]

Fusarium solani DSM 1164 = assay: Antifungal microdilution MIC test; settings: DSM1164, comparative test
Description: as §1, §2, §3, §4

[1] = system: Candida glabrata ATCC 15545; assay: Antifungal microdilution MIC test; settings: Nakaseomyces glabratus, ATCC15545, comparative test
Description: as §1, §2, §3, §4

[2] = system: Fusarium oxysporum DSM 841; assay: Antifungal microdilution MIC test; settings: DSM841, comparative test
Description: as §1, §2, §3, §4

Candida krusei ATCC 6258 = assay: Antifungal microdilution MIC test; settings: Pichia kudriavzevii, ATCC6258, comparative test
Description: as §1, §2, §3, §4

[3] = system: 3T3-L1 murine embryonic fibroblast line; assay: Neutral red uptake toxicity test, 3T3-L1 fibroblasts; settings: medium with serum, 24 h exposure
Description: Preliminary tests were conducted in the 3T3-L1 murine embryonic fibroblast line (ATCC, CL-173™), an immortalized line (highly tolerant cells). DMEM was used as the medium. 24 h after seeding and successful adhesion, polymers dissolved in the medium were added to the cells (the medium was first replaced with a serum-free medium in serum-free experiments), and viable cells were quantified after another 24 h using the neutral red uptake assay.
The toxicity of ciclopirox and terbinafine, two commercially used antifungal drugs, was evaluated in similar conditions (the same cell line, medium composition and exposure time).

HaCaT cell line = assay: Neutral red uptake toxicity test, HaCaT keratinocytes; settings: human, 24 h, 5 μg/mL
Description: The testing was performed in the HaCaT cell line, a nontumorigenic, immortalized human keratinocyte line. The DMEM medium was used in the culture, including a modification with 10% fetal bovine serum added. 24 h after seeding and successful adhesion, the polymer dissolved in the medium was added to the cells (the medium was first replaced with a serum-free medium in serum-free experiments), and viable cells were quantified after another 24 h using the neutral red uptake assay.
The toxicity of terbinafine and ciclopirox, two commercially used antifungal drugs, was evaluated in similar conditions (the same cell line, medium composition and exposure time). As for ciclopirox, the serum-free medium was not used because the drug strongly interacts with serum and testing in a serum-free medium would have been unreliable. The results are shown in graphs in FIG. 8 and FIG. 9.

[4] = system: Aspergillus flavus ATCC 204304; assay: Antifungal microdilution MIC test; settings: Aspergillus flavus, ATCC204304, comparative test
Description: as §1, §2, §3
(§5) Incubation was performed at room temperature, 27° C., 37° C., depending on the fungal species, until fungal growth was obtained in growth control (well 11). After the incubation period, fungal growth was evaluated visually and the lowest polymer concentrations that caused complete fungal growth inhibition (MIC (minimal inhibitory concentration) values) were determined.
(§6) A test was performed on selected fungal strains to compare MIC values of the PMAPTAC133 polymer with the MIC values of two known antifungal drugs (terbinafine and ciclopirox), used in the treatment of fungal infections of glabrous skin, hairy skin and nails.
(§7) The procedure described in the section above (Example 8) was used in the testing.
(§8) The drugs were dissolved in dimethyl sulfoxide (DMSO) and starting concentrations of 4 g/L were prepared, from which series of two-fold dilutions in DMSO were obtained. Respective […] concentrations were diluted to 1:100 in sterile water and subsequently transferred to wells 1-10 on a titration plate in a volume of 20 μL. Wells 11 and 12 were filled up with 20 μL DMSO diluted to 1:10 in water. Wells 1-11 were inoculated with fungi in a volume of 180 μL of fungal cell suspensions in a liquid medium, and […] of the sterile medium was transferred to well 12. Final drug concentrations on plates after adding fungal suspensions in the liquid medium were 0.008-4 mg/L.

Trichophyton rubrum D320 = assay: Antifungal microdilution MIC test; settings: comparative test
Description: as §1, §2, §3, §5, §6, §7, §8

[5] = system: Trichophyton tonsurans DSM 12285; assay: Antifungal microdilution MIC test; settings: DSM12285, comparative test
Description: as §1, §2, §3, §5, §6, §7, §8

[6] = system: Trichophyton mentagrophytes ATCC 18484; assay: Antifungal microdilution MIC test; settings: Trichophyton mentagrophytes, ATCC18484, comparative test
Description: as §1, §2, §3, §5, §6, §7, §8

[7] = system: Aspergillus fumigatus SU 56; assay: Antifungal microdilution MIC test; settings: Aspergillus fumigatus, SU56, comparative test
Description: as §1, §2, §3, §5, §6, §7, §8

[8] = system: Trichophyton interdigitale 251; assay: Antifungal microdilution MIC test; settings: comparative test
Description: as §1, §2, §3, §5, §6, §7, §8

[9] = system: Trichophyton interdigitale D182; assay: Antifungal microdilution MIC test; settings: comparative test
Description: as §1, §2, §3, §5, §6, §7, §8

[10] = system: Trichophyton rubrum DSM 16111; assay: Antifungal microdilution MIC test; settings: DSM16111, comparative test
Description: as §1, §2, §3, §5, §6, §7, §8

[11] = system: Scopulariopsis brevicaulis 34; assay: Antifungal microdilution MIC test; settings: comparative test
Description: as §1, §2, §3, §5, §6, §7, §8

[12] = system: Fusarium solani strain 155; assay: Antifungal microdilution MIC test; settings: comparative test
Description: as §1, §2, §3, §5, §6, §7, §8

[13] = system: Aspergillus terreus DSM 1958; assay: Antifungal microdilution MIC test; settings: Aspergillus terreus, DSM1958, comparative test
Description: as §1, §2, §3, §5, §6, §7, §8

[14] = system: Trichophyton interdigitale DSM4167; assay: Antifungal microdilution MIC test; settings: comparative test
Description: as §1, §2, §3, §5, §6, §7, §8

[15] = system: Trichophyton tonsurans 264; assay: Antifungal microdilution MIC test; settings: comparative test
Description: as §1, §2, §3, §5, §6, §7, §8

[16] = system: Candida albicans ATCC 90028; assay: Antifungal microdilution MIC test; settings: ATCC90028, comparative test
Description: as §1, §2, §3, §5, §6, §7, §8

Trichophyton rubrum D197 = assay: Antifungal microdilution MIC test; settings: comparative test
Description: as §1, §2, §3, §5, §6, §7, §8

[17] = system: Aspergillus brasiliensis ATCC 16404; assay: Antifungal microdilution MIC test; settings: Aspergillus brasiliensis, ATCC16404, comparative test
Description: as §1, §2, §3, §5, §6, §7, §8

[18] = system: Aspergillus fumigatus DSM 819; assay: Antifungal microdilution MIC test; settings: Aspergillus fumigatus, DSM819, comparative test
Description: as §1, §2, §3, §5, §6, §7, §8

Cryptococcus neoformans = assay: Antifungal microdilution MIC test; settings: comparative test; for MIC: Cryptococcus neoformans
Description: as §1, §2, §3, §5, §6, §7, §8

[19] = system: Scopulariopsis brevicaulis DSM 9122; assay: Antifungal microdilution MIC test; settings: DSM9122, comparative test
Description: as §1, §2, §3, §5, §6, §7, §8

MIC (Fusarium oxysporum 109; incubation time 24 h): > 4 mg/L | MIC (Fusarium oxysporum 109; incubation time 48 h): > 4 mg/L | MIC (Fusarium solani DSM 1164; incubation time 24 h): > 4 mg/L | MIC (Fusarium solani DSM 1164; incubation time 48 h): > 4 mg/L | MIC ([1]; incubation time 24 h): > 4 mg/L | MIC ([1]; incubation time 48 h): > 4 mg/L | MIC ([2]; incubation time 24 h): > 4 mg/L | MIC ([2]; incubation time 48 h): > 4 mg/L | MIC (Candida krusei ATCC 6258; incubation time 24 h): > 4 mg/L | MIC (Candida krusei ATCC 6258; incubation time 48 h): > 4 mg/L | MIC ([4]; incubation time 24 h): > 4 mg/L | MIC ([4]; incubation time 48 h): > 4 mg/L | MIC (Trichophyton rubrum D320; incubation time 24 h): > 4 mg/L | MIC (Trichophyton rubrum D320; incubation time 48 h): > 4 mg/L | MIC (Trichophyton rubrum D320; incubation time 72 h): > 4 mg/L | MIC ([5]; incubation time 48 h): > 4 mg/L | MIC ([5]; incubation time 72 h): > 4 mg/L | MIC ([6]; incubation time 24 h): > 4 mg/L | MIC ([6]; incubation time 48 h): > 4 mg/L | MIC ([6]; incubation time 72 h): > 4 mg/L | MIC ([7]; incubation time 24 h): > 4 mg/L | MIC ([7]; incubation time 48 h): > 4 mg/L | MIC ([8]; incubation time 24 h): > 4 mg/L | MIC ([8]; incubation time 48 h): > 4 mg/L | MIC ([8]; incubation time 72 h): > 4 mg/L | MIC ([9]; incubation time 24 h): > 4 mg/L | MIC ([9]; incubation time 48 h): > 4 mg/L | MIC ([9]; incubation time 72 h): > 4 mg/L | MIC ([10]; incubation time 24 h): > 4 mg/L | MIC ([10]; incubation time 48 h): > 4 mg/L | MIC ([10]; incubation time 72 h): > 4 mg/L | MIC ([11]; incubation time 24 h): > 4 mg/L | MIC ([11]; incubation time 48 h): > 4 mg/L | MIC ([12]; incubation time 24 h): > 4 mg/L | MIC ([12]; incubation time 48 h): > 4 mg/L | MIC ([13]; incubation time 24 h): > 4 mg/L | MIC ([13]; incubation time 48 h): > 4 mg/L | MIC ([14]; incubation time 24 h): > 4 mg/L | MIC ([14]; incubation time 48 h): > 4 mg/L | MIC ([14]; incubation time 72 h): > 4 mg/L | MIC ([15]; incubation time 48 h): > 4 mg/L | MIC ([15]; incubation time 72 h): > 4 mg/L | MIC ([16]; incubation time 24 h): > 4 mg/L | MIC ([16]; incubation time 48 h): > 4 mg/L | MIC (Trichophyton rubrum D197; incubation time 48 h): > 4 mg/L | MIC (Trichophyton rubrum D197; incubation time 72 h): > 4 mg/L | MIC ([17]; incubation time 24 h): > 4 mg/L | MIC ([17]; incubation time 48 h): > 4 mg/L | MIC ([18]; incubation time 24 h): > 4 mg/L | MIC ([18]; incubation time 48 h): > 4 mg/L | MIC (Cryptococcus neoformans; incubation time 24 h): > 4 mg/L | MIC (Cryptococcus neoformans; incubation time 48 h): > 4 mg/L | MIC ([19]; incubation time 24 h): > 4 mg/L | MIC ([19]; incubation time 48 h): > 4 mg/L
SMILES: Cc1cc(C2CCCCC2)n(O)c(=O)c1 [Ciclopirox, ciclopirox]
concentration at which the number of viable cells decreased to less than 50% [3]: ≥ 5 µg/mL | reduction of viable keratinocyte cells compared to the control (HaCaT cell line): 30% | concentration with slight growth suppression (Cryptococcus neoformans; incubation time 24 h): >4 slight mg/L
